Assays:
BACE1 [1] = target: T1, BACE1 (Homo sapiens, UniProt P56817); test: In Vitro Enzymatic BACE FRET (Fluorescence Resonance Energy Transfer) Assay; assay type: biochemical; conditions: read-out: BACE1 FRET assay
Summary of the method: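 Cleavage of a 50 nM internally quenched peptide substrate is followed by fluorescence after a one-hour reaction in acidic acetate buffer, pH 4.2, terminated by Tris.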

BACE1 [2] = target: T1, BACE1; test: In Vitro BACE Cell-based Assay (HEK cell assay): Aβ40 in conditioned medium of cells stably expressing Amyloid Precursor Protein, sandwich ELISA; conditions: read-out: HEK cell assay
Summary of the method: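 HEK cells stably expressing APP were treated 24 h with compound in 10-point dose response starting at 100 or 10 μM (0.1% DMSO). Secreted Aβ40 quantified by sandwich ELISA (pAb40 capture, biotinylated 6E10 detection, europium time-resolved fluorescence), with IC50 derived from percent inhibition versus concentration.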

T1 sequence (P56817 46-501, species assumed): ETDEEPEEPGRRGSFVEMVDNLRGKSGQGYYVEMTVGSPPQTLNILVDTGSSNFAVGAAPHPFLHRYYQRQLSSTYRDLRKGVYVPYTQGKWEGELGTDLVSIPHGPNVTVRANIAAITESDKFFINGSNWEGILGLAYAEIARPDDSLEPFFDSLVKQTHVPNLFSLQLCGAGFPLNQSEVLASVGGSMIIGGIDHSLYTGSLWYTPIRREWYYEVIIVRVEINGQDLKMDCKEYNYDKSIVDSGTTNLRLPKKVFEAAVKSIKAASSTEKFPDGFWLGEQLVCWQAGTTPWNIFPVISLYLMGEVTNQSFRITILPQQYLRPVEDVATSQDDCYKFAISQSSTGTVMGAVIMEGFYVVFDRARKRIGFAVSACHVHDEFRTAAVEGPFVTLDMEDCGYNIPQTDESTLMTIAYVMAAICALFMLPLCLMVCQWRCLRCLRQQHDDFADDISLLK

Row | IC50 (BACE1 [1]) [µM] | IC50 (BACE1 [2]) [µM] | IC50 (BACE1 [1]; Table IV, class symbols) [µM] | IC50 (BACE1 [2]; Table IV, class symbols) [µM] | SMILES | also measured
1 | > 5 | > 5 |  |  | N#Cc1ccccc1Oc1ccc2c(c1)[C@]1(COC(N)=N1)c1cc(Br)ccc1O2 [compound 997] | 
2 |  |  | 1 to 5 | > 5 | COc1cnc2c(c1)[C@]1(COC(N)=N1)c1cc(Br)ccc1O2 [compound 542] | 
3 |  |  |  |  | CC(C)(C)COc1ccc2c(c1)[C@@]1(COC(N)=N1)c1cc(-c3cnc4ccccn34)ccc1O2 [compound 192] | IC50 (BACE1 [1]; Table III, IC50's in uM ranges): 1 to 5 µM; IC50 (BACE1 [2]; Table III, IC50's in uM ranges): > 5 µM
4 |  |  | 1 to 5 | > 5 | NC1=NC2(CO1)c1cnc(Cl)cc1Oc1ccc(-c3cncnc3)cc12 (stereo not shown) [compound 852] | 
5 |  |  | < 0.1 | 0.1 to 1 | NC1=N[C@]2(CO1)c1cc(-c3ccc(C(F)(F)F)cc3)ccc1Oc1ccc(-c3cncnc3)cc12 [compound 811] | 
6 |  |  | 0.1 to 1 | 1 to 5 | COc1ccc2c(c1)[C@]1(COC(N)=N1)c1cc(-c3cncc4ccccc34)ccc1O2 [compound 634] | 
7 | 0.1 to 1 | 0.1 to 1 |  |  | CC1(COc2cc3c(cc2F)Oc2ccc(-c4cncnc4)cc2[C@]32COC(N)=N2)COC1 [compound 713] | 
8 | < 0.1 | 0.1 to 1 |  |  | CC(C)(C)COc1ccc2c(c1)[C@@]1(COC(N)=N1)c1cc(-c3ccc(C#N)nc3)ccc1O2 [compound 782] | 
9 | < 0.1 | < 0.1 |  |  | CCC(C)(O)COc1ccc2c(c1)[C@]1(COC(N)=N1)c1cc(-c3cccnc3)ccc1O2 (stereo partly shown) [compound 770] | 
10 | 1 to 5 | 1 to 5 |  |  | NC1=N[C@]2(CO1)c1cc(-c3ccc(F)cc3)ccc1Oc1ncc(C3=CCOCC3)cc12 [compound 691] | 
11 |  |  |  |  | NC1=N[C@@]2(CO1)c1cc(-c3cccnc3F)ccc1Oc1ccc(-c3ccnc(F)c3)nc12 [compound 399] | IC50 (BACE1 [1]; in vitro BACE FRET enzyme assay, IC50 class symbols): < 0.1 µM; IC50 (BACE1 [2]; HEK cell-based assay, Aβ40 in conditioned medium, IC50 class symbols): 0.1 to 1 µM
12 |  |  |  |  | NC1=N[C@]2(CO1)c1cc(OCC(C(F)(F)F)C(F)(F)F)ccc1Oc1ccc(-c3cncnc3)cc12 [compound 163] | IC50 (BACE1 [1]; Table III, IC50's in uM ranges): 0.1 to 1 µM; IC50 (BACE1 [2]; Table III, IC50's in uM ranges): 0.1 to 1 µM
13 |  |  | < 0.1 | 1 to 5 | CC(C)(C)COc1ccc2c(c1)[C@]1(COC(N)=N1)c1cc(-c3cccc(S(C)(=O)=O)c3)ccc1O2 [compound 915] | 
14 | 1 to 5 | 1 to 5 |  |  | NC1=N[C@@]2(CO1)c1cc(-c3cccnc3)ccc1Oc1ccc(Cl)nc12 [compound 988] | 
15 |  |  |  |  | C=C(C)COc1ccc2c(c1)[C@]1(COC(N)=N1)c1cc(-c3cncnc3)ccc1O2 [compound 139] | IC50 (BACE1 [1]; Table III, IC50's in uM ranges): < 0.1 µM; IC50 (BACE1 [2]; Table III, IC50's in uM ranges): < 0.1 µM
16 | 0.1 to 1 | 0.1 to 1 |  |  | COC(=O)/C=C/c1ccc2c(c1)[C@]1(COC(N)=N1)c1cc(-c3cccnc3)ccc1O2 [compound 947] | 
17 |  |  | 0.1 to 1 | 0.1 to 1 | NC1=N[C@@]2(CO1)c1cc(-c3cccnc3F)ccc1Oc1cnc(Cl)cc12 [compound 551] | 
18 | < 0.1 | < 0.1 |  |  | NC1=N[C@@]2(CO1)c1cc(-c3cccnc3)ccc1Oc1ncc(C3=CCOCC3)cc12 [compound 664] | 
19 |  |  | > 5 | > 5 | NC1=N[C@]2(CO1)c1cc(-c3cncnc3)ccc1Oc1c(F)cccc12 [compound 552] | 
20 |  |  |  |  | CC(=O)c1cccc(-c2ccc3c(c2)[C@]2(COC(N)=N2)c2cc(OCC(C)(C)C)ccc2O3)c1 [compound 191] | IC50 (BACE1 [1]; Table III, IC50's in uM ranges): < 0.1 µM; IC50 (BACE1 [2]; Table III, IC50's in uM ranges): 1 to 5 µM
21 | < 0.1 |  |  |  | NC1=N[C@@]2(CO1)c1cc(-c3cc(Cl)ccc3F)ccc1Oc1ncc(N3CCOCC3)cc12 [compound 457] | IC50 (BACE1 [2]; HEK cells): < 0.1 µM
22 | > 5 | > 5 |  |  | COc1ccc2c(c1)[C@@]1(COC(N)=N1)c1cc(Br)cnc1O2 [compound 680] | 
23 |  |  | < 0.1 | < 0.1 | NC1=N[C@]2(CO1)c1cc(CCC3(O)CCC3)ccc1Oc1ccc(-c3cncnc3)cc12 [compound 797] | 
24 | > 5 | > 5 |  |  | NC1=N[C@@]2(CO1)c1cc(Oc3ccccn3)ccc1Oc1ncc(Br)cc12 [compound 936] | 
25 | < 0.1 | < 0.1 |  |  | NC1=N[C@@]2(CO1)c1cc(-c3cccnc3)ccc1Oc1ccc(-c3ccc(F)nc3)cc12 [compound 969] | 
26 | 0.1 to 1 | 1 to 5 |  |  | CC(C)(C)COc1ccc2c(c1)[C@]1(COC(N)=N1)c1cc(C3=CCOCC3)ccc1O2 [compound 755] | 

Source: patent US8426447B2, “Spiro-tricyclic ring compounds as beta-secretase modulators and methods of use” (Amgen Inc., priority 2008, dated 2013)
